{"source": "patent US8691827B2", "about": "“Amino tetrahydro-pyridopyrimidine PDE10 inhibitors” (Merck Sharp & Dohme Corp., priority 2009, dated 2014)", "data": [{"target": "human PDE10A2 (Homo sapiens (Human), UniProt Q9Y233)", "sequence (Q9Y233 267-1055)": "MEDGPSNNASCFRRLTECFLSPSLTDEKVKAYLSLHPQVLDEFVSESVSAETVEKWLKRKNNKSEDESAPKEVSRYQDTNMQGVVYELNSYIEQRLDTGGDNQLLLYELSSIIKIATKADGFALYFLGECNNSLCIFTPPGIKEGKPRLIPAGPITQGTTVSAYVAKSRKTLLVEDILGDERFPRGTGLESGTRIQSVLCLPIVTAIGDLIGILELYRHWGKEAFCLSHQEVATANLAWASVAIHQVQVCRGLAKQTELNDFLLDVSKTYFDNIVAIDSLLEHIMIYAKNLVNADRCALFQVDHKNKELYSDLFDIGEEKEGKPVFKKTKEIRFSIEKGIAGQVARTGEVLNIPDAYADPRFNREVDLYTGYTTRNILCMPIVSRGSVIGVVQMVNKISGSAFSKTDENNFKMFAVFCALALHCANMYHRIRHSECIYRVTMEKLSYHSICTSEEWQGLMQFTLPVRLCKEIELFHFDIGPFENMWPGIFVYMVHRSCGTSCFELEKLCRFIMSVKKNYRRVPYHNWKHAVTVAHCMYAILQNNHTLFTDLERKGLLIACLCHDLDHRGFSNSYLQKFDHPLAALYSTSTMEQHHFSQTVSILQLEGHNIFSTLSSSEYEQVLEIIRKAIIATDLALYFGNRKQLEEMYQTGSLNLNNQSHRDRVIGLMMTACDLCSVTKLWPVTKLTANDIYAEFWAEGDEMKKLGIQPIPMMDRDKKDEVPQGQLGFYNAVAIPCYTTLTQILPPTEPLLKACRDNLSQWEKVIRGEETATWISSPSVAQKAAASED", "test": "PDE10 fluorescence polarization (IMAP FP) inhibition assay", "type": "biochemical", "settings": "FAM-labeled cAMP 50 nM, room temperature, read-out: PDE10A Ki", "experimental": "The activity of the compounds in accordance with the present invention as PDE10 inhibitors may be readily determined without undue experimentation using a fluorescence polarization (FP) methodology that is well known in the art (Huang, W., et al., J. Biomol Screen, 2002, 7: 215).\nIn a typical experiment the PDE10 inhibitory activity of the compounds of the present invention was determined in accordance with the following experimental method. PDE10A2 was amplified from human fetal brain cDNA (Clontech, Mountain View, Calif.) using a forward primer corresponding to nucleotides 56-77 of human PDE10A2 (Accession No. AF127480, Genbank Identifier 4894716), containing a Kozak consensus sequence, and a reverse primer corresponding to nucleotides 2406-2413 of human PDE10A2 (Accession No. AF127480, Genbank Identifier 4894716). Amplification with Easy-A polymerase (Stratagene, La Jolla, Calif.) was 95° C. for 2 minutes followed by thirty three cycles of 95° C. for 40 seconds, 55° C. for 30 seconds, and 72° C. for 2 minutes 48 seconds. Final extension was 72° C. for 7 minutes. The PCR product was TA cloned into pcDNA3.2-TOPO (Invitrogen, Carlsbad, Calif.) according to standard protocol. AD293 cells with 70-80% confluency were transiently transfected with human PDE10A2/pcDNA3.2-TOPO using Lipofectamine 2000 according to manufacturer specifications (Invitrogen, Carlsbad, Calif.). Cells were harvested 48 hours post-transfection and lysed by sonication (setting 3, 10×5 sec pulses) in a buffer containing 20 mM HEPES, 1 mM EDTA and protease inhibitor cocktail (Roche). Lysate was collected by centrifugation at 75,000×g for 20 minutes. Supernatant containing the cytoplasmic fraction was used for evaluation of PDE10A2 activity. The fluorescence polarization assay for cyclic nucleotide phosphodiesterases was performed using an IMAP® FP kit supplied by Molecular Devices, Sunnyvale, Calif. (product # R8139). IMAP® technology has been applied previously to phosphodiesterase assays (Huang, W., et al., J. Biomol Screen, 2002, 7: 215). Assays were performed at room temperature in 384-well microtiter plates with an incubation volume of 20.2 μL. Solutions of test compounds were prepared in DMSO and serially diluted with DMSO to yield 8 μL of each of 10 solutions differing by 3-fold in concentration, at 32 serial dilutions per plate. 100% inhibition is determined using a known PDE10 inhibitor, which can be any compound that is present at 5,000 times its Ki value in the assay described as follows, such as papaverine (see Siuciak, et al. Neuropharmacology (2006) 51:386-396; Becker, et al. Behav Brain Res (2008) 186(2):155-60; Threlfell, et al., J Pharmacol Exp Ther (2009) 328(3):785-795), 2-{4-[pyridin-4-yl-1-(2,2,2-trifluoroethyl)-1H-pyrazol-3-yl]phenoxymethyl}quinoline succinic acid or 2-[4-(1-methyl-4-pyridin-4-yl-1H-pyrazol-3-yl)-phenoxymethyl]quinoline succinic acid (see Schmidt, et al. J Pharmacol Exp Ther (2008) 325:681-690; Threlfell, et al., J Pharmacol Exp Ther (2009) 328(3): 785-795). 0% of inhibition is determined by using DMSO (1% final concentrations). A Labcyte Echo 555 (Labcyte, Sunnyvale, Calif.) is used to dispense 200 nL from each well of the titration plate to the 384 well assay plate. A solution of enzyme ( 1/1600 dilution from aliquots; sufficient to produce 20% substrate conversion) and a separate solution of FAM-labeled cAMP PDE from Molecular Devices (product # R7506), at a final concentration of 50 nM are made in the assay buffer (10 mM Tris HCl, pH 7.2, 10 mM MgCl2, 0.05% NaN3 0.01% Tween-20, and 1 mM DTT). The enzyme and the substrate are then added to the assay plates in two consecutive additions of 10 μL, and then shaken to mix. The reaction is allowed to proceed at room temperature for 30 minutes. A binding solution is then made from the kit components, comprised of 80% Solution A, 20% Solution B and binding reagent at a volume of 1/600 the total binding solution. […]", "units": {"Ki": "nM"}, "values": [{"smiles": "CC(C)CC(=O)N1CCc2nc(-c3cncc(-c4cncnc4)c3)nc(N(C)Cc3ccccc3)c2C1", "note": "[Compound 1-7, 1-{4-[benzyl(methyl)amino]-2-[5-(pyrimidin-5-yl)pyridin-3-yl[-7,8-dihydropyrido]4,3-d]pyrimidin-6(5H)-yl}-3-methylbutan-1-one]", "Ki": 63}, {"smiles": "O=C(Nc1ccccc1)N1CCc2nc(-c3ccncc3)nc(N3CCc4ccncc4C3)c2C1", "note": "[Compound 1-3, 4-(3,4-dihydro-2,7-naphthyridin-2(1H)-yl)-N-phenyl-2-pyridin-4-yl-7,8-dihydropyrido[4,3-d]pyrimidine-6(5H)-carboxamide]", "Ki": 162}, {"smiles": "COc1cccc(C2CN(c3nc(-c4cccnc4)nc4c3CN(C(=O)Nc3ccccc3)CC4)CCN2)c1", "note": "(stereo not drawn) [Compound 1-4, 4-[3-(3-methoxyphenyl)-piperazin-1-yl]-N-phenyl-2-pyridin-3-yl-7,8-dihydropyrido[4,3-d]pyrimidine-6(5H)-carboxamide]", "Ki": 153}, {"smiles": "COC(=O)NCCNc1nc(-c2cccnc2)nc2c1CN(C(=O)Nc1ccccc1)CC2", "note": "[Compound 1-5, methyl-(2-{[6-(anilinocarbonyl)-2-pyridin-3-yl-5,6,7,8-tetrahydropyrido[4,3-d]pyrimidin-4-yl]amino}ethyl)carbamate]", "Ki": 95.3}, {"smiles": "O=C(Nc1ccccc1)N1CCc2nc(-c3ccncc3)nc(NCCc3ccccn3)c2C1", "note": "[Compound 1-1, N-phenyl-2-pyridin-4-yl-4-[(2-pyridin-2-ylethyl)amino]-7,8-dihydropyrido[4,3-d]pyrimidine-6(5H)-carboxamide]", "Ki": 47.9}, {"smiles": "CC(C)CC(=O)N1CCc2nc(-c3cncc(-c4cn[nH]c4)c3)nc(N(C)Cc3ccccc3)c2C1", "note": "[Compound 1-8, 1-{4-[benzyl(methyl)amino]-2-[5-(1H-pyrazol-4-yl)pyridin-3-yl]-7,8-dihydropyrido[4,3-d]pyrimidin-6(5H)-yl}-3-methylbutan-1-one]", "Ki": 15}, {"smiles": "O=C(Nc1ccccc1)N1CCc2nc(-c3cccnc3)nc(NCc3c[nH]c(-c4ccccc4)n3)c2C1", "note": "[Compound 1-9, N-phenyl-4-{[(2-phenyl-1H-imidazol-4-yl)methyl]amino}-2-(pyridin-3-yl)-7,8-dihydropyrido[4,3-d]pyrimidine-6(5H)-carboxamide]", "Ki": 2.19}, {"smiles": "O=C(Nc1ccccc1)N1CCc2nc(-c3ccncc3)nc(NCc3ccccn3)c2C1", "note": "[Compound 1-2, N-phenyl-2-pyridin-4-yl-4-[(pyridin-2-ylmethyl)amino]-7,8-dihydropyrido[4,3-d]pyrimidine-6(5H)-carboxamide]", "Ki": 192}, {"smiles": "O=C(Nc1ccccc1)N1CCc2nc(-c3ccc(F)nc3)nc(NCCc3ccccn3)c2C1", "note": "[Compound 1-6, 2-(6-fluoropyridin-3-yl)-N-phenyl-4-[(2-pyridin-2-ylethyl)amino]-7,8-dihydropyrido[4,3-d]pyrimidine-6(5H)-carboxamide]", "Ki": 114}]}]}
